Experimental findings from patent US8987249B2, “Substituted 2-Aza-bicyclo[2.2.1]heptane-3-carboxylic acid (benzyl-cyano-methyl)-amides inhibitors of Cathepsin C” (Boehringer Ingelheim International GmbH, priority 2013, dated 2015) are described below.

For data set [1], the target named is recombinant human DPPI (Cathepsin C) (Homo sapiens (Human), UniProt P53634). Briefly: Inhibition of human DPPI (Cathepsin C). The class given is biochemical. The note with it: substrate Gly-Arg-AMC. The method in brief:
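Fluorescence read after 30 min room-temperature turnover of 50 μM (final) substrate by recombinant human cathepsin C, pH 6.0 MES/NaCl/DTT/BSA buffer, quenched by Gly-Phe-DMK (1 μM final). Activity as percent of vehicle after background subtraction, used for IC50.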

Data set [2] has as its target recombinant human Cathepsin K (Homo sapiens (Human), UniProt P43235). Description: Inhibition of human Cathepsin K. The format is biochemical. The note with it: substrate Z-Gly-Pro-Arg-AMC. The method in brief:
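Fluorogenic Z-Gly-Pro-Arg-AMC cleavage, 60 min at room temperature, after a 10 min enzyme–compound preincubation (enzyme 2 ng/μL; compound 0.1 nM–100 μM; 1% DMSO). Buffer pH 5.5 with sodium acetate, EDTA and L-cysteine; procathepsin first activated 30 min at pH 3.5. E64 (1 μM) stop; IC50 derived from percent of vehicle signal minus background (Ex 360/Em 460 nm).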

Data set [3] can be described thus: Determination of metabolic stability with human liver microsomes. The note with it: pooled human liver microsomes; for half-life at 1 μM: human, pH 7.6; for In vitro stability in human liver microsome incubations t½: 1 μM test compound, 37° C., NADPH.

recombinant human DPPI (Cathepsin C), sequence (P53634 231-394): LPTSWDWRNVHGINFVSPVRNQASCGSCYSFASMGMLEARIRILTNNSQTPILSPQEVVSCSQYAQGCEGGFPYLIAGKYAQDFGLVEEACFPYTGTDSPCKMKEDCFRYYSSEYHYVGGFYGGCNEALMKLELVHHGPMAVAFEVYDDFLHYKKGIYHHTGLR
recombinant human DPPI (Cathepsin C), sequence (P53634 395-463): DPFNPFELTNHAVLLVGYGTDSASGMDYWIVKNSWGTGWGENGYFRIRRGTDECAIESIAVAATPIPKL
recombinant human DPPI (Cathepsin C), sequence (P53634 25-134): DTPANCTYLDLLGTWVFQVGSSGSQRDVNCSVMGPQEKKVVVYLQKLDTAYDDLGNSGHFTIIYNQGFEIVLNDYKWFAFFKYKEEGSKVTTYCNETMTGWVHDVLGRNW
recombinant human Cathepsin K, sequence (P43235 115-329): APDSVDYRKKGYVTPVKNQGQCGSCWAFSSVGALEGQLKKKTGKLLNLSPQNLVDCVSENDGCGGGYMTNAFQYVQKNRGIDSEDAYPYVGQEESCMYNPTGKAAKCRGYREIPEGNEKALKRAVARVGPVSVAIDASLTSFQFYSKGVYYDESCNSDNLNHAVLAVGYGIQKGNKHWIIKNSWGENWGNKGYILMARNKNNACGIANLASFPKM

In the case of `N#C[C@H](Cc1ccc(N2CCN(CCO)CC2)cc1F)NC(=O)[C@H]1N[C@@H]2CC[C@H]1C2` [Example 190], the values for the IC50 in data set [1] and in data set [2] were 10.9 nM and 3700 nM, respectively. Further, the half-life at 1 μM in data set [3] was more than 2.17 h.
Taken in the same sequence, the figures for `CC(=O)N1CCC(Cn2cc(-c3ccc(C[C@@H](C#N)NC(=O)[C@H]4N[C@@H]5CC[C@H]4C5)c(F)c3)cn2)CC1` [Example 55] were 8.2 nM, 3900 nM and more than 2.17 h.
On the same counts, the results for `N#C[C@H](Cc1ccc(-c2ccc3c(c2)COC3=O)cc1F)NC(=O)[C@H]1N[C@@H]2CC[C@H]1C2` [Example 3, (1S,2S,4R)—N-[(1S)-1-cyano-2-[2-fluoro-4-(1-oxo-3H-isobenzofuran-5-yl)phenyl]ethyl]-3-azabicyclo[2.2.1]heptane-2-carboxamide] are 0.7 nM, 2100 nM and 0.95 h.
`N#C[C@H](Cc1ccc(-c2ccc(=O)n(CC(F)F)c2)cc1F)NC(=O)[C@H]1N[C@@H]2CC[C@H]1C2` [Example 343]: the IC50 is 4.5 nM in data set [1] and 5300 nM in data set [2]. Besides, the half-life at 1 μM in data set [3] was more than 2.17 h.
As to `Cn1cc(-c2ccc(C[C@@H](C#N)NC(=O)[C@H]3N[C@@H]4CC[C@H]3C4)c(F)c2)ccc1=O` [Example 254], the IC50 was determined as 2 nM in data set [1] and 4500 nM in data set [2]. In addition, the half-life at 1 μM in data set [3] is more than 2.17 h.
Taken in the same sequence, the figures for `N#Cc1ccc(-c2ccc(C[C@@H](C#N)NC(=O)[C@H]3N[C@H]4C[C@@H]3[C@@H]3C[C@@H]34)c(F)c2)s1` [Example 40] were 5.1 nM, 7800 nM and more than 2.17 h.
In the case of `N#CC(Cc1ccc(-c2cnc(Cl)cn2)cc1F)NC(=O)[C@H]1N[C@@H]2CC[C@H]1C2` (stereo partly drawn) [Example 102], the results for the IC50 in data set [1] and in data set [2] were 24.8 nM and 4300 nM, respectively. In data set [3], this compound displayed a half-life at 1 μM of more than 2.17 h.
Taken in the same sequence, the figures for `N#CC(Cc1ccc(-c2ccc3c(c2)CCNC3=O)cc1F)NC(=O)[C@H]1N[C@@H]2CC[C@H]1C2` (stereo partly drawn) [Example 49] were 7.3 nM, 6500 nM and more than 2.17 h.
Taken in the same sequence, the figures for `CN1CCc2cc(-c3ccc(C[C@@H](C#N)NC(=O)[C@H]4N[C@@H]5CC[C@H]4C5)c(F)c3)ccc2C1=O` [Example 42] were 5.3 nM, 2900 nM and more than 2.17 h.
In the case of `N#C[C@H](Cc1ccc(N2CC3CCN(C4CCOC4)C3C2)cc1F)NC(=O)[C@H]1N[C@@H]2CC[C@H]1C2` (stereo partly drawn) [Example 348], the IC50 in data set [1] turned out to be 17.6 nM; in data set [2] it was 4300 nM. Moreover, in data set [3], the “In vitro stability in human liver microsome incubations t½” value worked out at 2.17 h.
With `CN1CC2(C1)CN(c1ccc(C[C@@H](C#N)NC(=O)[C@H]3N[C@@H]4CC[C@H]3C4)c(F)c1)C2` [Example 330], the IC50 is 7.8 nM in data set [1] and 6600 nM in data set [2]. In data set [3], this compound yielded a half-life at 1 μM of more than 2.17 h.
Take `COCCN1CCN(c2ccc(C[C@@H](C#N)NC(=O)[C@H]3N[C@@H]4CC[C@H]3C4)c(F)c2)CC1` [Example 182]: the IC50 came to 8.8 nM in data set [1] and 3500 nM in data set [2]. In data set [3], this compound registered a half-life at 1 μM of more than 2.17 h.
Taken in the same sequence, the figures for `CN1C(=O)C(C)(C)c2ccc(-c3ccc(C[C@@H](C#N)NC(=O)[C@H]4N[C@@H]5CC[C@H]4C5)c(F)c3)cc21` [Example 199] were 16 nM, 11700 nM and 1.47 h.
On the same counts, the results for `CN1CCC(c2ccc(C[C@@H](C#N)NC(=O)[C@H]3N[C@@H]4CC[C@H]3C4)c(F)c2)CC1` [Example 117] are 39.6 nM, 2700 nM and more than 2.17 h.
Take `N#C[C@H](Cc1ccc(-c2ccc(C(=O)NC3CCOCC3)cc2)cc1F)NC(=O)[C@H]1N[C@@H]2CC[C@H]1C2` [Example 200]: the IC50 in data set [1] turned out to be 16.5 nM; in data set [2], 3300 nM. This compound also came in with a half-life at 1 μM in data set [3] of more than 2.17 h.
As for `N#C[C@H](Cc1cc2c(=O)[nH]c3c(F)c(F)ccc3c2cc1F)NC(=O)[C@H]1N[C@@H]2CC[C@H]1C2` [Example 324], the IC50 in data set [1] worked out at 1 nM; in data set [2], 800 nM. In data set [3], this compound gave a half-life at 1 μM of more than 2.17 h.
Taken in the same sequence, the figures for `CN1CCN(C(=O)c2coc(-c3ccc(C[C@@H](C#N)NC(=O)[C@H]4N[C@@H]5CC[C@H]4C5)c(F)c3)c2)CC1` [Example 241] were 6.8 nM, 2500 nM and 1.4 h.
On the same counts, the results for `N#C[C@H](Cc1ccc(-c2cccc(S(=O)(=O)C3CC3)c2)cc1F)NC(=O)[C@H]1N[C@@H]2CC[C@H]1C2` [Example 153] are 3.8 nM, 4400 nM and 1.83 h.
Take `CS(=O)(=O)c1ccc(-c2ccc(C[C@@H](C#N)NC(=O)[C@H]3N[C@@H]4CC[C@H]3C4)c(F)c2)cc1OCC(F)F` [Example 252]: the figures for the IC50 in data set [1] and in data set [2] were 3.8 nM and 3300 nM, respectively. The “In vitro stability in human liver microsome incubations t½” value in data set [3] is 2.17 h.
For the compound `N#C[C@H](Cc1ccc2c(c1)c(=O)[nH]c1cc(C(F)(F)F)ccc12)NC(=O)[C@H]1N[C@@H]2CC[C@H]1C2` [Example 301], the values for the IC50 in data set [1] and in data set [2] were 4.5 nM and 19500 nM, respectively. The compound further registered a half-life at 1 μM in data set [3] of 1.67 h.
For the compound `N#C[C@H](Cc1ccc(N2CCN3CCOCC3C2)cc1F)NC(=O)[C@H]1N[C@@H]2CC[C@H]1C2` (stereo partly drawn) [Example 43], the IC50 in data set [1] was 5.6 nM; in data set [2] it was 2200 nM. The compound also displayed a half-life at 1 μM in data set [3] of more than 2.17 h.
With `N#Cc1ccc(-c2ccc(CC(C#N)NC(=O)[C@H]3N[C@@H]4CC[C@H]3C4)c(F)c2)cc1F` (stereo partly drawn) [Example 35], the IC50 in data set [1] was found to be 4.6 nM; in data set [2] it was 4400 nM. Further, the half-life at 1 μM in data set [3] was more than 2.17 h.
Taken in the same sequence, the figures for `Cn1c(=O)c2cc(CC(C#N)NC(=O)[C@H]3N[C@@H]4CC[C@H]3C4)ccc2c2ccc(C#N)cc21` (stereo partly drawn) [Example 303] were 5 nM, 22200 nM and more than 2.17 h.
Turning to `Cc1cc(-c2ccc(CC(C#N)NC(=O)[C@H]3N[C@@H]4CC[C@H]3C4)c(F)c2)n[nH]1` (stereo partly drawn) [Example 58], the results for the IC50 in data set [1] and in data set [2] were 8.4 nM and 11100 nM, respectively. In data set [3], this compound came in with a half-life at 1 μM of more than 2.17 h.
Taken in the same sequence, the figures for `CCS(=O)(=O)c1ccc(-c2ccc(CC(C#N)NC(=O)[C@H]3N[C@@H]4CC[C@H]3C4)c(F)c2)cc1` (stereo partly drawn) [Example 71] were 10.8 nM, 4800 nM and more than 2 h.
Turning to `N#CC(Cc1ccc(-c2ccc(Cl)nn2)cc1F)NC(=O)[C@H]1N[C@@H]2CC[C@H]1C2` (stereo partly drawn) [Example 108], the IC50 in data set [1] is 26.4 nM; in data set [2] it was 9400 nM. The same compound had a half-life at 1 μM in data set [3] of more than 2.17 h.
Turning to `N#C[C@H](Cc1ccc(-c2ccc3c(c2)CNC3=O)cc1F)NC(=O)[C@H]1N[C@H]2C[C@@H]1[C@@H]1C[C@@H]12` [Example 147], the concentration for half-maximal inhibition (IC50) in data set [1] amounted to 6.2 nM; in data set [2], 9700 nM. In data set [3], this compound gave a half-life at 1 μM of more than 2.17 h.
On the same counts, the results for `CS(=O)(=O)Nc1cccc(-c2ccc(C[C@@H](C#N)NC(=O)[C@H]3N[C@H]4C[C@@H]3[C@@H]3C[C@@H]34)c(F)c2)c1` [Example 139] are 11.7 nM, 4800 nM and more than 2.17 h.

The term IC50 denotes the point on the concentration scale where inhibition reaches its midpoint. One may read the half-life as the time in which the quantity being followed falls by half. Lower therefore signals rapid decline.
